pEC50: −log10 of the molar value.
Assays:
TR-α = biological target: T1, TR-α (Homo sapiens, UniProt P10827); assay: In vitro TR-α activity (in-house protocol); assay type: cell-based
T1 sequence (P10827 1-410 isoform P10827-2): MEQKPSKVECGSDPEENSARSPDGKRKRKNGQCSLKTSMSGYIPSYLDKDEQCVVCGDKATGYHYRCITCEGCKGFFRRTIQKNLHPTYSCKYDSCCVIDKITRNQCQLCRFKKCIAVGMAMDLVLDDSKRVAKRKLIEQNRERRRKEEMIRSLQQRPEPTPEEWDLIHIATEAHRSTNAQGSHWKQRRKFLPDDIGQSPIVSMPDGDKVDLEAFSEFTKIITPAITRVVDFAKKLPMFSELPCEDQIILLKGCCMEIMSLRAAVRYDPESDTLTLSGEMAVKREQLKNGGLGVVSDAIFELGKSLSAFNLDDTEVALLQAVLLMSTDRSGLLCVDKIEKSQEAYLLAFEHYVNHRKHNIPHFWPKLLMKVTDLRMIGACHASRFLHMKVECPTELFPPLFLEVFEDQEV
Description: (§1) Invitro TR-α & TR-β activities were determined as per in-house protocols and the results of representative compounds are provided in tables 1 & 2 below as a proof of the efficacies of the novel class of compounds disclosed above.

TR-β = biological target: T2, TR-β (Homo sapiens, UniProt P10828); assay: In vitro TR-β activity (in-house protocol); assay type: cell-based; settings: for fold induction at 0.001 µM: Conc. 1 nM; for fold induction at 0.001 µM / fold induction at 0.01 µM / fold induction at 0.1 µM / fold induction at 1 µM: read-out: TR-β Fold Induction w.r.t T3(100 nm); for fold induction at 0.01 µM: Conc. 10 nM; for fold induction at 0.1 µM: Conc. 100 nM; for fold induction at 1 µM: Conc. 1000 nM
T2 sequence (P10828 1-461): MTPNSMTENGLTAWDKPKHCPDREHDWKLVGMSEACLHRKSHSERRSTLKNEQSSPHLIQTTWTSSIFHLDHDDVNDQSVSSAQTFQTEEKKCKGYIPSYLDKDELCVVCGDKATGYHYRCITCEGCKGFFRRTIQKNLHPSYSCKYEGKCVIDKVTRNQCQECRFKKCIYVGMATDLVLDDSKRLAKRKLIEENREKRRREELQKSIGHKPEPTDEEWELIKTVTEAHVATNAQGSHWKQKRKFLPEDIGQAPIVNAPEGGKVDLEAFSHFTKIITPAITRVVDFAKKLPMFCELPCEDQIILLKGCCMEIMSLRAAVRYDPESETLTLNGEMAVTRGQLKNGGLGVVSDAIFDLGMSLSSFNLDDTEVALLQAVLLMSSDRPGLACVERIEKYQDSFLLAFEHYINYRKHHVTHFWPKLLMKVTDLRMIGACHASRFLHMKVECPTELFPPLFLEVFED
Description: as §1

SMILES	TR-α Fold Induction w.r.t T3(100 nm) (TR-α; Conc. 1 nM)	TR-α Fold Induction w.r.t T3(100 nm) (TR-α; Conc. 10 nM)	TR-α Fold Induction w.r.t T3(100 nm) (TR-α; Conc. 100 nM)	TR-α Fold Induction w.r.t T3(100 nm) (TR-α; Conc. 1000 nM)	fold induction at 0.001 µM (TR-β)	fold induction at 0.01 µM (TR-β)	fold induction at 0.1 µM (TR-β)	fold induction at 1 µM (TR-β)	pEC50 (TR-α)	pEC50 (TR-β)
O=C(O)CN(C(=O)Oc1ccc(O)cc1)c1cc(Cl)c(Oc2ccc(O)c(S(=O)(=O)N3CCCCC3)c2)c(Cl)c1 [Example 41, [{3,5-Dichloro-4-[4-hydroxy-3-(piperidine-1-sulfonyl)-phenoxy]-phenyl}-(4-hydroxy-phenoxycarbonyl)-amino]-acetic acid]	20.78	56.19	99.00	78.50	23.3	73.5	90	67		
O=C(O)CN(CC(=O)O)c1cc(Cl)c(Oc2ccc(O)c(S(=O)(=O)N3CCCCC3)c2)c(Cl)c1 [Example 33, (Carboxymethyl-{3,5-dichloro-4-[4-hydroxy-3-(piperidine-1-sulfonyl)-phenoxy]-phenyl}-amino)-acetic acid]	9.66	13.90	25.46	46.33	8.63	11.9	26	46.8		
O=C(O)CN(C(=O)Oc1ccc(O)cc1)c1cc(Cl)c(Oc2ccc(O)c(S(=O)(=O)N3CCCC3)c2)c(Cl)c1 [Example 63, [{3,5-Dichloro-4-[4-hydroxy-3-(pyrrolidine-1-sulfonyl)-phenoxy]-phenyl}-(4-hydroxy-phenoxycarbonyl)-amino]-acetic acid]									6.47	6.60
O=C(O)CN(C(=O)Oc1ccc(O)cc1)c1cc(Cl)c(Oc2ccc(O)c(C(=O)c3ccc(F)cc3)c2)c(Cl)c1 [Example 55, [{3,5-Dichloro-4-[3-(4-fluoro-benzoyl)-4-hydroxy-phenoxy]-phenyl}-(4-hydroxy-phenoxycarbonyl)-amino]-acetic acid]									6.97	7.19
O=C(O)CN(C(=O)Oc1ccc(O)cc1)c1cc(Cl)c(Oc2ccc(O)c(S(=O)(=O)N3CCOCC3)c2)c(Cl)c1 [Example 61, [{3,5-Dichloro-4-[4-hydroxy-3-(morpholine-4-sulfonyl)-phenoxy]-phenyl}-(4-hydroxy-phenoxycarbonyl)-amino]-acetic acid]	11.55	12.50	12.30	28.11	10.2	12.2	28.9	85.2		
Cc1cccc(C(=O)c2cc(Oc3c(Cl)cc(N(CC(=O)O)C(=O)Oc4ccc(O)cc4)cc3Cl)ccc2O)c1 [Example 66, [{3,5-Dichloro-4-[4-hydroxy-3-(3-methyl-benzoyl)-phenoxy]-phenyl}-(4-hydroxy-phenoxycarbonyl)-amino]-acetic acid]	20.56	15.36	18.11	25.75	36.7	25.9	40.7	55.2		
CCOC(=O)N(CC(=O)O)c1cc(Cl)c(Oc2ccc(O)c(C(C)CC)c2)c(Cl)c1 (stereo not shown) [Example 2, {[4-(3-sec-Butyl-4-hydroxy-phenoxy)-3,5-dichloro-phenyl]-ethoxycarbonyl-amino}-acetic acid]									6.92	6.79
CCOC(=O)N(CC(=O)O)c1cc(Cl)c(Oc2ccc(O)c(C(=O)c3ccc(F)cc3)c2)c(Cl)c1 [Example 15, ({3,5-Dichloro-4-[3-(4-fluoro-benzoyl)-4-hydroxy-phenoxy]-phenyl}-ethoxycarbonyl-amino)-acetic acid]		11.34	39.66	33.74		23.5	70.5	66.8		
CC(C)c1cc(Oc2c(Cl)cc(N(CC(=O)O)CC(=O)O)cc2Cl)ccc1O [Example 31, {Carboxymethyl-[3,5-dichloro-4-(4-hydroxy-3-isopropyl-phenoxy)-phenyl]-amino}-acetic acid]	8.17	17.06	50.99	46.21	12.1	27.8	64.3	75.2		
Cc1cc(N(CC(=O)O)C(=O)Oc2ccc(O)cc2)cc(C)c1Oc1ccc(O)c(C(C)C)c1 [Example 42, [[4-(4-Hydroxy-3-isopropyl-phenoxy)-3,5-dimethyl-phenyl]-(4-hydroxy-phenoxycarbonyl)-amino]-acetic acid]	11.05	26.63	72.96	80.89	12.9	41.4	91.9	86		
CCC(C)c1cc(Oc2c(Cl)cc(N(CC(=O)O)C(=O)Oc3ccc(O)cc3)cc2Cl)ccc1O (stereo not shown) [Example 23, [[4-(3-sec-Butyl-4-hydroxy-phenoxy)-3,5-dichloro-phenyl]-(4-hydroxy-phenoxycarbonyl)-amino]-acetic acid]									8.03	8.59
O=C(O)CN(C(=O)Oc1ccc(O)cc1)c1cc(Cl)c(Oc2ccc(O)c(Cc3ccccc3)c2)c(Cl)c1 [Example 50, [[4-(3-Benzyl-4-hydroxy-phenoxy)-3,5-dichloro-phenyl]-(4-hydroxy-phenoxycarbonyl)-amino]-acetic acid]									7.63	8.21
O=C(O)CN(C(=O)Oc1ccc(O)cc1)c1cc(Br)c(Oc2ccc(O)c(S(=O)(=O)NC3CC4CCC3C4)c2)c(Br)c1 (stereo not shown) [Example 53, [{4-[3-(Bicyclo[2.2.1]hept-2-ylsulfamoyl)-4-hydroxy-phenoxy]-3,5-dibromo-phenyl}-(4-hydroxy-phenoxycarbonyl)-amino]-acetic acid]	11.19	12.00	17.15	50.30	11	12.9	27	91.7		
CCOC(=O)N(CC(=O)O)c1cc(Cl)c(Oc2ccc(O)c(C(C)(C)C)c2)c(Cl)c1 [Example 13, {[4-(3-tert-Butyl-4-hydroxy-phenoxy)-3,5-dichloro-phenyl]-ethoxycarbonyl-amino}-acetic acid]		49.80	96.60	72.90		44.2	80.6	75		
CCOC(=O)N(CC(=O)O)c1cc(Cl)c(Oc2ccc(O)c(C(=O)c3cccc(Cl)c3)c2)c(Cl)c1 [Example 25, ({3,5-Dichloro-4-[3-(3-chloro-benzoyl)-4-hydroxy-phenoxy]-phenyl}-ethoxycarbonyl-amino)-acetic acid]	4.22	8.55	12.70	7.15	10.9	26.3	70.1	51.7		
CCOC(=O)N(CC(=O)O)c1cc(Cl)c(Oc2ccc(O)c(C(=O)c3ccc(Cl)s3)c2)c(Cl)c1 [Example 17, ({3,5-Dichloro-4-[3-(5-chloro-thiophene-2-carbonyl)-4-hydroxy-phenoxy]-phenyl}-ethoxycarbonyl-amino)-acetic acid]		21.19	51.82	53.12		27.7	72.8	77.9		
CC(C)NS(=O)(=O)c1cc(Oc2c(Cl)cc(N(CC(=O)O)C(=O)Oc3ccc(O)cc3)cc2Cl)ccc1O [Example 45, [[3,5-Dichloro-4-(4-hydroxy-3-isopropylsulfamoyl-phenoxy)-phenyl]-(4-hydroxy-phenoxycarbonyl)-amino]-acetic acid]	10.48	12.02	23.05	50.62	13.5	18.7	47.1	88.9		

Reference: patent publication US8420851B2, “Selective TR-β 1 agonist” (Cadila Healthcare Limited, priority 2006, dated 2013)
